Assay results: the supplement of paper PMC11061612

Assays:
Assay in all cases: combination Emax (second highest fraction inhibited in the dose matrix, 72 h); higher = more inhibition; extreme values may be limits of the assay
[1] = system: MDA-MB-231 (Breast Carcinoma)
Procedure, shortened: (§1)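 Cell lines in DMEM/F12 or RPMI with 10% FBS were plated in 1536-well plates, held 24 hours at 37°C, 5% CO2, then given two-drug dose matrices for 72 hours (DMSO typically 0.2%). Viability was read by CellTiter-Glo 2.0 luminescence and scaled as inhibition from 0 (vehicle wells) to 1 (blank wells). Combination Emax is the second-highest inhibition in the matrix; Bliss excess is observed combination effect minus expected EA + EB − EA·EB, EA and EB being single-agent effects.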

[2] = system: KARPAS-620 (Plasma Cell Myeloma)
Procedure, shortened: as §1

[3] = system: SN12C (Kidney Carcinoma)
Procedure, shortened: as §1

[4] = system: DOV13 (Ovarian Carcinoma)
Procedure, shortened: as §1

[5] = system: MFH-ino (Other Solid Carcinomas)
Procedure, shortened: as §1

[6] = system: DSH1 (Bladder Carcinoma)
Procedure, shortened: as §1

[7] = system: C3A (Hepatocellular Carcinoma)
Procedure, shortened: as §1

[8] = system: CAL-78 (Chondrosarcoma)
Procedure, shortened: as §1

[9] = system: SK-N-FI (Neuroblastoma)
Procedure, shortened: as §1

[10] = system: DB (B-Cell Non-Hodgkin's Lymphoma)
Procedure, shortened: as §1

[11] = system: JiyoyeP-2003 (Burkitt's Lymphoma)
Procedure, shortened: as §1

[12] = system: LS-513 (Colorectal Carcinoma)
Procedure, shortened: as §1

[13] = system: EM-2 (Chronic Myelogenous Leukemia)
Procedure, shortened: as §1

[14] = system: NCI-H1793 (Lung Adenocarcinoma)
Procedure, shortened: as §1

[15] = system: SUIT-2 (Pancreatic Carcinoma)
Procedure, shortened: as §1

[16] = system: TE-5 (Esophageal Squamous Cell Carcinoma)
Procedure, shortened: as §1

[17] = system: NCI-H1299 (Non-Small Cell Lung Carcinoma)
Procedure, shortened: as §1

[18] = system: LU-99A (Non-Small Cell Lung Carcinoma)
Procedure, shortened: as §1

[19] = system: 697 (B-Lymphoblastic Leukemia)
Procedure, shortened: as §1

[20] = system: J82 (Bladder Carcinoma)
Procedure, shortened: as §1

Structure (SMILES)	combination Emax [1]	combination Emax [2]	combination Emax [3]	combination Emax [4]	combination Emax [5]	combination Emax [6]	combination Emax [7]	combination Emax [8]	combination Emax [9]	combination Emax [10]	combination Emax [11]	combination Emax [12]	combination Emax [13]	combination Emax [14]	combination Emax [15]	combination Emax [16]	combination Emax [17]	combination Emax [18]	combination Emax [19]	combination Emax [20]
Cn1cnc2c(F)c(Nc3ccc(Br)cc3Cl)c(C(=O)NOCCO)cc21 [Selumetinib] + CCN(CCO)CCCOc1ccc2c(Nc3cc(CC(=O)Nc4cccc(F)c4)[nH]n3)ncnc2c1 [AZD2811] (first compound max 10 µM, 7x7, partner max 1 µM)	0.519	0.87	0.237	0.4	0.273	0.383	0.494	0.267	0.455	0.411	0.235	0.85	0.88	0.203	0.349	0.186	0.363	0.453	1	0.153
CN(C)CCCOc1ccc(-c2ccc3ncc4c(c3c2)n(C2CCOCC2)c(=O)n4C)cn1 [AZD0156] + CCN(CCO)CCCOc1ccc2c(Nc3cc(CC(=O)Nc4cccc(F)c4)[nH]n3)ncnc2c1 [AZD2811] (first compound max 1 µM, 7x7, partner max 1 µM)	0.206	0.693	0.12	0.493	0.136	0.211	0.129	0.193	0.114	0.559	0.408	0.508	0.852	0.182	0.13	0.1	0.251	0.473	1	0.283
Cc1nc(Nc2ncc(C(=O)Nc3c(C)cccc3Cl)s2)cc(N2CCN(CCO)CC2)n1 [Dasatinib] + CC(=O)Nc1cccc(-n2c(=O)n(C3CC3)c(=O)c3c(Nc4ccc(I)cc4F)n(C)c(=O)c(C)c32)c1 [Trametinib] (first compound max 2 µM, 7x7, partner max 1 µM)	0.832	0.645	0.455	0.814	0.513	0.505	0.577	0.474	0.757	0.28	0.715	0.998	0.861	0.567	0.671	0.322	0.795	0.943	0.708	0.276
NC1(C(=O)N[C@@H](CCO)c2ccc(Cl)cc2)CCN(c2ncnc3[nH]ccc23)CC1 [Capivasertib] + CC(=O)c1c(C)c2cnc(Nc3ccc(N4CCNCC4)cn3)nc2n(C2CCCC2)c1=O [Palbociclib] (first compound max 10 µM, 7x7, partner max 10 µM)	0.577	0.781	0.17	0.588	0.483	0.62	0.556	0.542	0.413	0.728	0.683	0.675	0.384	0.361	0.552	0.359	0.465	0.502	0.838	0.452
CC1(C)CCC(CN2CCN(c3ccc(C(=O)NS(=O)(=O)c4ccc(NCC5CCOCC5)c([N+](=O)[O-])c4)c(Oc4cnc5[nH]ccc5c4)c3)CC2)=C(c2ccc(Cl)cc2)C1 [Venetoclax] + COc1cc(Nc2ncc3c(n2)-c2ccc(Cl)cc2C(c2c(F)cccc2OC)=NC3)ccc1C(=O)O [Alisertib] (first compound max 1 µM, 7x7, partner max 10 µM)	0.392	1	0.318	0.693	0.318	0.53	0.302	0.598	0.666	0.949	0.852	0.55	0.903	0.612	0.106	0.137	0.385	0.44	1	0.351
COc1nnc2ccc(N3CCC(c4ccc(OCCN5CCN(C)C(=O)[C@H]5C)cc4)CC3)nn12 [AZD5153] + C=CCn1c(=O)c2cnc(Nc3ccc(N4CCN(C)CC4)cc3)nc2n1-c1cccc(C(C)(C)O)n1 [AZD1775] (first compound max 1 µM, partner max 1 µM)	0.612	0.764	0.165	0.826	0.473	0.614	0.718	0.551	0.641	0.953	0.944	0.728	0.986	0.358	0.693	0.383	0.777	0.595	1	0.486
